Test results taken from US20230055582A1, “COMPOSITIONS AND METHODS FOR TREATMENT OF INFLAMMATORY CONDITIONS AND DISEASES OF THE SKIN” (priority 2020, published 2023).
Several values for one entry are separate records, joined by “and”; a condition that tells them apart may be missing. Identical values can stand only once.

How the values were obtained:
HaCaT cells [1] = assay: Cell viability, crystal violet assay, poly I:C treated HaCaT cells; details: for Cell viability: 24 h; for Cell viability increase: vs poly I:C alone
Experimental: (§1) Cell culture. The human keratinocyte cell line HaCaT was a kind gift from Prof. Joseph Kost (Department of Chemical Engineering, Ben-Gurion University of the Negev, Israel). Cells were cultured in Dulbecco's Modified Eagle Medium (DMEM) (Biological Industries, Kibbutz Beit-Haemek, Israel) supplemented with 1% antibiotic-antimycotic (Tivan Biotech, Kfar-Saba, Israel), 1mM sodium pyruvate, and 10% fetal bovine serum (FBS) (Biological Industries), and were maintained in an incubator with 5% CO2 at 37° C.
(§2) CBD was purchased from Sigma Israel. […] PEA was in powder form. A 30 mM stock solution was made by dissolving PEA in dimethyl sulfoxide (DMSO). […] All stocks were filtered using a 0.2 μm filter before use and further diluted to the required concentration in cell medium. Vehicle (control) solutions contained the corresponding amount of DMSO (0.007%).
90,000 cells/well were plated on 12-well plates and allowed to attach at 37° C. for 24 hours. Subsequently, the wells were washed with phosphate-buffered saline (PBS) and the medium was replaced with a medium containing either vehicle (control) or poly I:C. […] The wells were then incubated for further 24 h and 50μL samples were drawn for analysis of cytokines. Samples were frozen and shipped on dry ice.
Cell viability assay. Cell viability was measured using a crystal violet assay. 90,000 cells/well were plated on 12-well plates and allowed to attach at 37° C. for 24 hours. […] 24 hours later medium was aspirated, and cells were washed twice with PBS. 500 μL of crystal violet staining solution (0.5% (w/v) crystal violet powder, 20% methanol) was added to each well, followed by incubation for 30 min at room temperature. The staining solution was discarded, the plates were washed 5 times with distilled water and dried, and 500 μL of 10% acetic acid (v/v) was added to each well. Absorbance was measured at 595 nm.

IL-8 = IL-8 in medium of poly I:C treated HaCaT cells, multiplex immunoassay; type: cell-based, human; details: 24 h
Experimental: (§3) CBD was purchased from Sigma Israel. […] PEA was in powder form.
(§4) Samples were frozen and shipped on dry ice.
(§5) Analysis of cytokine content. Samples were shipped to Eve Technologies, Calgary (Canada) for analysis. Samples were analyzed using Human Focused 13-Plex Discovery Assay, a Multiplex immunoassay with fluorometric detection. Preliminary tests were conducted in order to determine samples dilution. The cytokines measured were granulocyte-macrophage colony-stimulating factor (GM-CSF), interferon gamma (IFNy), interleukin 1 beta (IL-1B), IL-2, IL-4, IL-5, IL-6, IL-8, IL-10, IL-12, IL-13, monocyte chemoattractant protein-1 (MCP-1) and tumor necrosis factor alpha (TNF-α).

HaCaT cells [2] = assay: Toxicity on HaCaT cells, qualitative light-microscope assessment after 50 hours; type: cell-based, human
Experimental: (§6) CBD, PEA and DB. CBD was purchased from Sigma Israel. […] CBD was 3.18 mM solution in ethanol. DB was in pure liquid form. PEA was in powder form.
Toxicity. HaCaT cells were incubated in 12 wells plates until 60-70% confluency was achieved. Subsequently, the cells were washed and incubated with medium containing PEA, DB or CBD. After 50 hours of incubation, the wells were observed under a light microscope and toxicity of the active compounds was assessed qualitatively by comparing the treated cells to controls incubated with vehicle. As concluded, under the conditions tested, PEA can be safely used in concentration of up to 50 μM, DB is non-toxic at concentrations of up to 0.01%, and CBD is non-toxic at concentration of up to 15 μM.

MCP-1 = MCP-1 in medium of poly I:C treated HaCaT cells, multiplex immunoassay; type: cell-based, human; details: for MCP-1: 24 h
Experimental: as §6
(§7) Procedure and administration of active compounds. […] Samples were frozen and shipped on dry ice.
as §5, with “(TNF-α). Results were calculated only for GM-CSF, IL-6, IL-8, MCP-1 and TNF-α.” for “(TNF-α).”

IL-6 = IL-6 in medium of poly I:C treated HaCaT cells, multiplex immunoassay; type: cell-based, human; details: 24 h
Experimental: as §3, §4, §5

TNF-α = TNF-α in medium of poly I:C treated HaCaT cells, multiplex immunoassay; type: cell-based, human; details: 24 h
Experimental: as §6, §7
as §5, with “(TNF-α). Results were calculated only for GM-CSF, IL-6, IL-8, MCP-1 and TNF-α.” for “(TNF-α).”

GM-CSF = GM-CSF in medium of poly I:C treated HaCaT cells, multiplex immunoassay; type: cell-based, human; details: 24 h
Experimental: as §6, §7
as §5, with “(TNF-α). Results were calculated only for GM-CSF, IL-6, IL-8, MCP-1 and TNF-α.” for “(TNF-α).”

[3] = system: GM-CSF, IL-6, IL-8, MCP-1 and TNF-α; assay: Five inflammatory cytokines taken together, poly I:C treated HaCaT cells; type: cell-based, human; details: higher dose (10 μM) with poly I:C 100 μg/mL
Experimental: as §1, §2
90,000 cells/well were plated on 12-well plates and allowed to attach at 37° C. for 24 hours. […]
as §5, with “Samples were shipped to Eve Technologies, Calgary (Canada) for analysis.” left out, “Preliminary tests were conducted in order to determine samples dilution.” left out

[4] = PEA 0.2 μM with poly I:C 100 μg/mL
[5] = PEA 2 μM with poly I:C 100 μg/mL
[6] = PEA 0.2 μM with poly I:C 100 μg/mL, percent of poly I:C alone
[7] = PEA 2 μM with poly I:C 100 μg/mL, percent of poly I:C alone
[8] = poly I:C 20 μg/mL, percent of control values
[9] = poly I:C 50 μg/mL, percent of control values
[10] = poly I:C 100 μg/mL, percent of control values
[11] = CBD 3 μM with poly I:C 100 μg/mL
[12] = CBD 3 μM with poly I:C 100 μg/mL, percent of poly I:C alone
[13] = CBD 10 μM with poly I:C 100 μg/mL
[14] = CBD 10 μM with poly I:C 100 μg/mL, percent of poly I:C alone

Compound: CCCCCCCCCCCCCCCC(=O)NCCO [PEA, palmitoylethanolamide]
- Cell viability (HaCaT cells [1]; [4]): 1.443 O.D.
- Cell viability (HaCaT cells [1]; [5]): 1.413 O.D.
- Cell viability (HaCaT cells [1]; human, 0.2 μM): 114.66%
- Cell viability (HaCaT cells [1]; human, 2 μM): 112.28%
- IL-8 (IL-8; [4]): 810.38 pg/mL
- IL-8 (IL-8; [6]): 88.23%
- IL-8 (IL-8; [5]): 773.38 pg/mL and 773.27 pg/mL
- IL-8 (IL-8; [7]): 84.19%
- non-toxic (safely used) concentration (HaCaT cells [2]; human, 50 h): up to 50 μM
- MCP-1 (MCP-1; [4]): 1345.28 pg/mL
- MCP-1 (MCP-1; [6]): 77.88%
- MCP-1 (MCP-1; [5]): 1554.20 pg/mL
- MCP-1 (MCP-1; [7]): 89.98%
- IL-6 (IL-6; [4]): 27.43 pg/mL
- IL-6 (IL-6; [6]): 78.08%
- IL-6 (IL-6; [5]): 27.23 pg/mL
- IL-6 (IL-6; [7]): 77.49%
- TNF-α (TNF-α; [4]): 4.673 pg/mL
- TNF-α (TNF-α; [6]): 72.23%
- TNF-α (TNF-α; [5]): 4.470 pg/mL
- TNF-α (TNF-α; [7]): 69.09%
- GM-CSF (GM-CSF; [4]): 60.36 pg/mL
- GM-CSF (GM-CSF; [6]): 78.42%
- GM-CSF (GM-CSF; [5]): 57.54 pg/mL
- GM-CSF (GM-CSF; [7]): 74.75%

Compound: polyinosinic:polycytidylic acid [Poly I:C]
- Cell viability (HaCaT cells [1]; poly I:C 20 μg/mL alone): 1.827 O.D.
- Cell viability (HaCaT cells [1]; poly I:C 50 μg/mL alone): 1.714 O.D.
- Cell viability (HaCaT cells [1]; poly I:C 100 μg/mL alone): 1.259 O.D.
- IL-8 (IL-8; poly I:C 20 μg/mL alone): 657.01 pg/mL
- IL-8 (IL-8; [8]): 330.64%
- IL-8 (IL-8; poly I:C 50 μg/mL alone): 729.48 pg/mL
- IL-8 (IL-8; [9]): 367.11%
- IL-8 (IL-8; poly I:C 100 μg/mL alone): 918.50 pg/mL
- IL-8 (IL-8; [10]): 462.24%
- MCP-1 (MCP-1; poly I:C 20 μg/mL alone): 369.54 pg/mL
- MCP-1 (MCP-1; [8]): 704.95%
- MCP-1 (MCP-1; poly I:C 50 μg/mL alone): 711.76 pg/mL
- MCP-1 (MCP-1; [9]): 1357.80%
- MCP-1 (MCP-1; poly I:C 100 μg/mL alone): 1727.32 pg/mL
- MCP-1 (MCP-1; [10]): 3295.15%
- increase in cytokine concentration, MCP-1 (MCP-1; poly I:C 100 μg/mL, vs control): up to 33 fold
- IL-6 (IL-6; poly I:C 20 μg/mL alone): 14.07 pg/mL
- IL-6 (IL-6; [8]): 523.57%
- IL-6 (IL-6; poly I:C 50 μg/mL alone): 19.50 pg/mL
- IL-6 (IL-6; [9]): 725.81%
- IL-6 (IL-6; poly I:C 100 μg/mL alone): 35.14 pg/mL
- IL-6 (IL-6; [10]): 1307.82%
- TNF-α (TNF-α; poly I:C 20 μg/mL alone): 2.74 pg/mL
- TNF-α (TNF-α; poly I:C 20 μg/mL, percent of control values, control below the standard curve): 846.39%
- TNF-α (TNF-α; poly I:C 50 μg/mL alone): 3.81 pg/mL
- TNF-α (TNF-α; poly I:C 50 μg/mL, percent of control values, control below the standard curve): 1179.38%
- TNF-α (TNF-α; poly I:C 100 μg/mL alone): 6.47 pg/mL and 6.470 pg/mL
- TNF-α (TNF-α; poly I:C 100 μg/mL, percent of control values, control below the standard curve): 2001.03%
- GM-CSF (GM-CSF; poly I:C 20 μg/mL alone): 53.09 pg/mL
- GM-CSF (GM-CSF; [8]): 266.74%
- GM-CSF (GM-CSF; poly I:C 50 μg/mL alone): 62.68 pg/mL
- GM-CSF (GM-CSF; [9]): 314.94%
- GM-CSF (GM-CSF; poly I:C 100 μg/mL alone): 76.98 pg/mL
- GM-CSF (GM-CSF; [10]): 386.75%

Compound: C=C(C)[C@@H]1CCC(C)=C[C@H]1c1c(O)cc(CCCCC)cc1O [CBD, 2-[(1R,6R)-6-isopropenyl-3-methylcyclohex-2-en-1-yl]-5-pentylbenzene-1,3-diol]
- Cell viability increase (HaCaT cells [1]; 3 μM with poly I:C 100 μg/mL): 5.5%
- Cell viability increase (HaCaT cells [1]; 10 μM with poly I:C 100 μg/mL): 15.3%
- Cell viability (HaCaT cells [1]; [11]): 1.328 O.D.
- Cell viability (HaCaT cells [1]; [12]): 105.50%
- Cell viability (HaCaT cells [1]; [13]): 1.451 O.D.
- Cell viability (HaCaT cells [1]; [14]): 115.29%
- IL-8 (IL-8; [11]): 643.44 pg/mL
- IL-8 (IL-8; [12]): 70.05%
- IL-8 (IL-8; [13]): 335.44 pg/mL
- IL-8 (IL-8; [14]): 36.52%
- Toxicity (HaCaT cells [2]; 5 μM, 50 hours): non toxic
- Toxicity (HaCaT cells [2]; 15 μM, 50 hours): non toxic
- Toxicity (HaCaT cells [2]; 45 μM, 50 hours): very toxic
- non-toxic (safely used) concentration (HaCaT cells [2]; HaCaT cells, 50 hours, under the conditions tested): up to 15 μM
- All cytokines measured reduced [3]: 60-80%
- MCP-1 (MCP-1; [11]): 956.97 pg/mL and 945.97 pg/mL
- MCP-1 (MCP-1; [12]): 54.77%
- MCP-1 (MCP-1; [13]): 272.60 pg/mL
- MCP-1 (MCP-1; [14]): 15.78%
- IL-6 (IL-6; [11]): 18.95 pg/mL
- IL-6 (IL-6; [12]): 53.94% and 53.04%
- IL-6 (IL-6; [13]): 12.15 pg/mL
- IL-6 (IL-6; [14]): 34.57%
- TNF-α (TNF-α; [11]): 3.277 pg/mL
- TNF-α (TNF-α; [12]): 50.64%
- TNF-α (TNF-α; [13]): 1.517 pg/mL
- TNF-α (TNF-α; [14]): 23.44%
- GM-CSF (GM-CSF; [11]): 56.44 pg/mL
- GM-CSF (GM-CSF; [12]): 73.32%
- GM-CSF (GM-CSF; [13]): 49.55 pg/mL
- GM-CSF (GM-CSF; [14]): 64.37%
